Measurements as given in PMC7497630, “Coibamide A Targets Sec61 to Prevent Biogenesis of Secretory and Membrane Proteins” (ACS Chemical Biology, 2020).
Bridge positions count the residues as written; N and C are the ends. Square brackets hold non-standard residues; d marks the D form. Peptide text beside a SMILES is read from it. * marks the point of attachment. NMe2Val = CC(C)[C@@H](C(=O)*)N(C)C; NMeI = CC[C@H](C)[C@H](NC)C(=O)O; NMeT = CN[C@H](C(=O)O)[C@@H](C)O; NMeL = CN[C@@H](CC(C)C)C(=O)O; NMePra = C#CC[C@H](NC)C(=O)O; dHiv = CC(C)[C@@H](O)C(=O)O; NMeS = CN[C@@H](CO)C(=O)O; Pra = C#CC[C@H](N)C(=O)O; dNMeA = CN[C@H](C)C(=O)O

The compounds below were run on A549 human lung adenocarcinoma cells. Conditions: 72 h.

Structure (SMILES) | IC50 [nM]
C#CC[C@@H](C(=O)N(C)[C@@H](CC(C)C)C(=O)N(C)[C@@H]1C(=O)N(C)[C@@H](COC)C(=O)N(C)[C@@H]([C@@H](C)CC)C(=O)N[C@@H](C)C(=O)N(C)[C@@H](CC(C)C)C(=O)N[C@@H](Cc2ccc(OC)cc2)C(=O)N(C)[C@H](C)C(=O)O[C@@H]1C)N(C)C(=O)[C@H](OC(=O)[C@H](C(C)C)N(C)C)C(C)C [R3 = propargyl] (NMe2Val-[dHiv][NMePra][NMeL][NMeT][NMeS](Me)[NMeI]A[NMeL]Y(Me)[dNMeA]; ester 4-C) | 1.7 ± 0.3
C#CC[C@@H]1NC(=O)[C@H]([C@@H](C)CC)N(C)C(=O)[C@H](COC)N(C)C(=O)[C@@H](N(C)C(=O)[C@H](CC(C)C)N(C)C(=O)[C@H](COC)N(C)C(=O)[C@H](OC(=O)[C@H](C(C)C)N(C)C)C(C)C)[C@@H](C)OC(=O)[C@@H](C)N(C)C(=O)[C@H](Cc2ccc(OC)cc2)NC(=O)[C@H](CC(C)C)N(C)C1=O [R8 = propargyl] (NMe2Val-[dHiv][NMeS](Me)[NMeL][NMeT][NMeS](Me)[NMeI][Pra][NMeL]Y(Me)[dNMeA]; ester 4-C) | 66 ± 15
C#CC[C@H]1C(=O)N[C@@H](Cc2ccc(OC)cc2)C(=O)N(C)[C@H](C)C(=O)O[C@H](C)[C@H](N(C)C(=O)[C@H](CC(C)C)N(C)C(=O)[C@H](COC)N(C)C(=O)[C@H](OC(=O)[C@H](C(C)C)N(C)C)C(C)C)C(=O)N(C)[C@@H](COC)C(=O)N(C)[C@@H]([C@@H](C)CC)C(=O)N[C@@H](C)C(=O)N1C [R9 = propargyl] (NMe2Val-[dHiv][NMeS](Me)[NMeL][NMeT][NMeS](Me)[NMeI]A[NMePra]Y(Me)[dNMeA]; ester 4-C) | 19 ± 7.6
C#CC[C@H]1C(=O)N(C)[C@@H]([C@@H](C)CC)C(=O)N[C@@H](C)C(=O)N(C)[C@@H](CC(C)C)C(=O)N[C@@H](Cc2ccc(OC)cc2)C(=O)N(C)[C@H](C)C(=O)O[C@H](C)[C@H](N(C)C(=O)[C@H](CC(C)C)N(C)C(=O)[C@H](COC)N(C)C(=O)[C@H](OC(=O)[C@H](C(C)C)N(C)C)C(C)C)C(=O)N1C [R6 = propargyl] (NMe2Val-[dHiv][NMeS](Me)[NMeL][NMeT][NMePra][NMeI]A[NMeL]Y(Me)[dNMeA]; ester 4-C) | 2 ± 0.9
C#CC[C@@H](C(=O)N(C)[C@@H]1C(=O)N(C)[C@@H](COC)C(=O)N(C)[C@@H]([C@@H](C)CC)C(=O)N[C@@H](C)C(=O)N(C)[C@@H](CC(C)C)C(=O)N[C@@H](Cc2ccc(OC)cc2)C(=O)N(C)[C@H](C)C(=O)O[C@@H]1C)N(C)C(=O)[C@H](COC)N(C)C(=O)[C@H](OC(=O)[C@H](C(C)C)N(C)C)C(C)C [R4 = propargyl] (NMe2Val-[dHiv][NMeS](Me)[NMePra][NMeT][NMeS](Me)[NMeI]A[NMeL]Y(Me)[dNMeA]; ester 4-C) | 3.7 ± 0.5
C#CC[C@H]1C(=O)N[C@@H](C)C(=O)N(C)[C@@H](CC(C)C)C(=O)N[C@@H](Cc2ccc(OC)cc2)C(=O)N(C)[C@H](C)C(=O)O[C@H](C)[C@H](N(C)C(=O)[C@H](CC(C)C)N(C)C(=O)[C@H](COC)N(C)C(=O)[C@H](OC(=O)[C@H](C(C)C)N(C)C)C(C)C)C(=O)N(C)[C@@H](COC)C(=O)N1C [R7 = propargyl] (NMe2Val-[dHiv][NMeS](Me)[NMeL][NMeT][NMeS](Me)[NMePra]A[NMeL]Y(Me)[dNMeA]; ester 4-C) | 9.3 ± 3.4
